Measurements taken from PMC4198181, “Gold(I) Complexes of 9-Deazahypoxanthine as Selective Antitumor and Anti-Inflammatory Agents” (PLoS ONE, 2014).

What was measured:
Type in all cases: cell-based, human
[1] = tested on: IκB-α degradation (NF-κB signalling pathway); test: LPS-induced IκB-α degradation (Western blot) in THP-1 macrophages; conditions: 300 nM, 30 min after LPS
Protocol: Macrophage-like THP-1 cells were pretreated with the tested compounds and stimulated by LPS as was describe above. Thirty minutes after the addition of LPS, the medium was aspirated and cells were washed by cold phosphate buffer solution (PBS). Subsequently, the cells were collected using the lysis buffer [50 mM Tris-HCl pH 7.5, 1 mM EGTA, 1 mM EDTA, 1 mM sodium orthovanadate, 50 mM sodium fluoride, 5 mM sodium pyrophosphate, 270 mM sucrose, 0.1% (v/v) Triton X-100, and cOmplete Protease Inhibitor Cocktail (Roche, Germany)] and scraper. The lysis of cells was facilitated by a short (≈30 s) incubation in the ultrasonic water bath. The protein concentration was determined according to Bradford's method. For protein separation, 30 µg of protein was loaded onto the 12% polyacrylamide gel. […] The membranes were incubated with the primary anti-IκB-α antibody at the concentration ratio of 1∶500, or with the primary anti-β-actin at the concentration ration of 1∶5 000 at 4°C for 16 h. After washing, the secondary anti-mouse IgG antibody diluted 1∶2 000 was applied on the membranes and incubated at laboratory temperature (22°C) for 1 h. The amount of the bound secondary antibody was detected colorimetrically by an Opti-4CN Kit according to the manufacturer's manual.

[2] = tested on: IL-1β mRNA; test: IL-1β gene expression by RT-qPCR in LPS-stimulated THP-1 macrophages; conditions: 300 nM, 2 h after LPS, normalised to β-actin
Protocol: For the determination of biological activity, we used the human monocytic leukaemia cell line THP-1 (ECACC, Salisbury, UK). The cells were cultivated at 37°C in the RPMI 1640 medium supplemented with 2 mM L-glutamine, 10% FBS, 100 U/mL of penicillin and 100 µg/mL of streptomycin in a humidified atmosphere containing 5% CO2. Stabilized cells (3rd–15th passage) were split into microtitration plates to get a concentration of 500 000 cells/mL and the differentiation to macrophages was induced by phorbol myristate acetate (PMA) dissolved in dimethyl sulfoxide (DMSO) at the final concentration of 50 ng/ml, and the cells were incubated for 24 h. In comparison with monocytes, differentiated macrophages tend to adhere to the bottoms of the cultivation plates. For next 24 h the cells were incubated with a fresh complete RPMI medium, i.e. containing antibiotics and FBS, without PMA. The medium was then aspirated, and the cells were washed with PBS and cultivated for next 24 hours in serum-free RPMI 1640 medium. These prepared macrophages were used for the detection of inflammatory response.
In the order to evaluate the expression of TNF-α, IL-1β, and β-actin mRNA, total RNA was isolated directly from the LPS-stimulated THP-1 cells. THP-1 macrophages were pretreated with compounds 2, 5, and Auranofin at the concentration of 300 nM or the vehicle (0.1% DMSO) only. After 1 h of the incubation, the inflammatory response was induced by LPS [except for the control cells (CTRL)]. After 2 h of the incubation with LPS, the medium was aspirated and the total RNA was isolated directly from the cells in cultivation plates using a RealTime Ready Cell Lysis Kit (Roche), according to the manufacturer's instructions.
The gene expression was quantified by two-step reverse-transcription quantitative (real-time) PCR (RT-qPCR). The reverse transcription step was performed by Transcriptor Universal cDNA Master using cell lysate as a template. […] The results were normalized to the amount of ROX reference dye, and the change in gene expression was determined by the 2^−ΔΔCT method. […]

[3] = tested on: 22Rv1 prostate carcinoma cells; test: MTT in vitro cytotoxicity, 22Rv1; conditions: 24 h treatment, read-out: IC50±S.E., 22Rv1
Protocol: (§1) In vitro cytotoxic activity was determined by the MTT assay in human breast adenocarcinoma (MCF7; ECACC no. 86012803), human osteosarcoma (HOS; ECACC no. 87070202), lung carcinoma (A549; ECACC no. 86012804), malignant melanoma (G361; ECACC no. 88030401), cervix epitheloid carcinoma (HeLa; ECACC no. 93021013), ovarian carcinoma (A2780; ECACC no. 93112519), cisplatin-resistant ovarian carcinoma (A2780R; […] ECACC no 105092802) cancer cell lines, purchased from European Collection of Cell Cultures (ECACC). […] The primary culture of human hepatocytes (HEP220, batch number HEP220819) was obtained from Biopredic International (France). The culture medium was Williams and HAM's F-12 (1∶1) supplemented with penicillin, streptomycin, ascorbic acid, linoleic acid, holo-transferin, ethanolamine, glucagon, insulin, dexamethasone, pyruvate, glucose, glutamine, amphotericin. The medium was enriched for plating with 2% foetal calf serum (v/v). The medium was exchanged for a serum-free medium the day after and the culture was stabilized for additional 24 h. Thereafter, the cells were ready for treatments. […] The MTT assay was performed spectrophotometrically at 540 nm (TECAN, Schoeller Instruments LLC). The cytotoxicity data were expressed as the percentage of viability, where 100% represented the treatments with vehicle (0.1% DMF or 0.1% DMSO). The cytotoxicity data from the cancer cell lines were acquired from three independent experiments (conducted in triplicate) using cells from different passages. The IC50 values were calculated from viability curves. The results are presented as arithmetic means±standard error of the mean (S.E.).

[4] = tested on: A2780 ovarian carcinoma cells; test: MTT in vitro cytotoxicity, A2780; conditions: 24 h treatment, read-out: IC50±S.E., A2780
Protocol: as §1

[5] = tested on: MCF7 breast carcinoma cells; test: MTT in vitro cytotoxicity, MCF7; conditions: 24 h treatment, read-out: IC50±S.E., MCF7
Protocol: as §1

| Structure (SMILES) | effect on LPS-induced IκB degradation [1] | effect on IL-1β mRNA transcription [2] | IC50 [3] | IC50 [4] | IC50 [5] |
| --- | --- | --- | --- | --- | --- |
| CC(C)Oc1ncnc2cc[n]([Au])c12.c1ccc(P(c2ccccc2)c2ccccc2)cc1 [complex 2, [Au(L2)(PPh3)]] | block moderately the IκB degradation | significantly reduce the transcription | 4 ± 0.1 µM | 4 ± 0.2 µM | 0.6 ± 0.1 µM |
| [Au][n]1ccc2ncnc(OCCc3ccccc3)c21.c1ccc(P(c2ccccc2)c2ccccc2)cc1 [complex 5] | block moderately the IκB degradation | significantly reduce the transcription | 3.7 ± 0.1 µM | 4.4 ± 0.3 µM | > 50 µM |
